Experimental data: ChEMBL document CHEMBL5214992, “Potent Uncompetitive Inhibitors of Nicotinamide N-Methyltransferase (NNMT) as In Vivo Chemical Probes” (J Med Chem, 2022)
Values belong to the molecule of their own block, whether it stands above or below them.

Legend:
[1] = Half life in C57BL6/N mouse at 50 mg/kg, po measured upto 24 hrs by LC-MS/MS analysis; assay type: ADME, organism-based; conditions: in vivo
[2] = Half life in C57BL6/N mouse at 10 mg/kg, po measured upto 24 hrs by LC-MS/MS analysis; assay type: ADME, organism-based; conditions: in vivo
[3] = Clearance in C57BL6/N mouse at 1 mg/kg, iv measured upto 24 hrs by LC-MS/MS analysis; assay type: ADME, organism-based; conditions: in vivo
[4] = biological target: T1, Nicotinamide N-methyltransferase (Homo sapiens, UniProt P40261)
T1 sequence (P40261 whole entry): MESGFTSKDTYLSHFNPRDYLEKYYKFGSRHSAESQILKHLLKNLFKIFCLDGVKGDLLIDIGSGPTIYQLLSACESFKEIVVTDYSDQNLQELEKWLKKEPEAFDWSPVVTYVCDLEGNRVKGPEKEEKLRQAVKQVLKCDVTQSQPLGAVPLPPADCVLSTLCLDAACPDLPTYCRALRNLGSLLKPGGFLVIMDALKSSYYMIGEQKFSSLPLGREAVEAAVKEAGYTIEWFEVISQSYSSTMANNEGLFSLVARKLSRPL
Description: Inhibition of human NNMT measured after 20 mins by luminescence based methyltransferase assay

[5] = Tmax in C57BL6/N mouse at 50 mg/kg, po measured upto 24 hrs by LC-MS/MS analysis; assay type: ADME, organism-based; conditions: in vivo
[6] = Oral bioavailability in C57BL6/N mouse at 50 mg/kg measured upto 24 hrs by LC-MS/MS analysis; assay type: ADME, organism-based; conditions: in vivo; for bioavailability: C57BL6/N
[7] = Cmax in C57BL6/N mouse at 50 mg/kg, po measured upto 24 hrs by LC-MS/MS analysis; assay type: ADME, organism-based; set-up: dose 50 mg/kg, time < 24 hrs, route po; conditions: in vivo
[8] = AUClast in C57BL6/N mouse at 50 mg/kg, po measured upto 24 hrs by LC-MS/MS analysis; assay type: ADME, organism-based; set-up: time < 24 hrs, dose 50 mg/kg, route po; conditions: in vivo; for AUC(0-t) at 24 h: C57BL6/N
[9] = Microsomal stability in human liver microsomes assessed as compound remaining after 60 mins by LC-MS/MS analysis; assay type: ADME, Microsome; conditions: for remaining at 1 h: liver microsomes, read-out: Stability
[10] = Microsomal stability in mouse liver microsomes assessed as compound remaining after 60 mins by LC-MS/MS analysis; assay type: ADME, Microsome; conditions: for remaining at 1 h: liver microsomes, read-out: Stability; for Stability: microsomes, 1 h
[11] = biological target: T1, Nicotinamide N-methyltransferase; assay: Inhibition of human NNMT in human K562 cells measured after 24 hrs by quantitative mass spectrometry; assay type: cell-based
[12] = Dissociation constant, pKa of the compound; assay type: physicochemical
[13] = Aqueous solubility of compound at pH 7.4; assay type: physicochemical; conditions: aqueous medium
[14] = biological target: P-gp (Homo sapiens, UniProt P08183); assay: Substrate activity at P-gp (unknown origin) assessed as efflux ratio; conditions: not told
[15] = biological target: CYP450 (Homo sapiens, UniProt P04798+P05177+P05181+P08684+P10632+P10635+P11509+P11712+P13584+P20813+P20815+P20853+P24462+P24903+P33260+P33261+P51589+P78329+P98187+Q02928+Q08477+Q16678+Q16696+Q5TCH4+Q6VVX0+Q7Z449+Q8TAV3+Q96SQ9+Q9HB55); assay: Inhibition of CYP450 (unknown origin); assay type: ADME, protein assay
[16] = biological target: hERG (Homo sapiens, UniProt Q12809); assay: Inhibition of hERG; assay type: toxicity
[17] = Mutagenicity in Salmonella typhimurium by Ames test; assay type: toxicity; conditions: salmonella enterica subsp. enterica serovar typhimurium
[18] = Plasma protein binding in mouse; assay type: ADME, cell-free; conditions: read-out: PPB
[19] = Plasma protein binding in human; assay type: ADME, cell-free; conditions: read-out: PPB
[20] = Volume of distribution at steady state in C57BL6/N mouse; assay type: ADME; conditions: in vivo, read-out: Vdss
[21] = Toxicity in C57BL6/N mouse assessed as adverse effect at 50 to 100 mg/kg, po qd measured after 2 weeks; assay type: organism-based; conditions: in vivo, 336 h, dose 50-100 mg/kg
[22] = substrate: C[C@@H]1Cc2cc(C(N)=O)cnc2N1; conditions: Homo sapiens
Description: Uncompetitive inhibition of human NNMT assessed as Km of nicotinamide

[23] = substrate: C[C@@H]1Cc2cc(C(N)=O)cnc2N1; conditions: Homo sapiens; remark: listed apart in the source
Description: Uncompetitive inhibition of human NNMT assessed as Km of SAM

Chain of P-gp (P08183 whole entry): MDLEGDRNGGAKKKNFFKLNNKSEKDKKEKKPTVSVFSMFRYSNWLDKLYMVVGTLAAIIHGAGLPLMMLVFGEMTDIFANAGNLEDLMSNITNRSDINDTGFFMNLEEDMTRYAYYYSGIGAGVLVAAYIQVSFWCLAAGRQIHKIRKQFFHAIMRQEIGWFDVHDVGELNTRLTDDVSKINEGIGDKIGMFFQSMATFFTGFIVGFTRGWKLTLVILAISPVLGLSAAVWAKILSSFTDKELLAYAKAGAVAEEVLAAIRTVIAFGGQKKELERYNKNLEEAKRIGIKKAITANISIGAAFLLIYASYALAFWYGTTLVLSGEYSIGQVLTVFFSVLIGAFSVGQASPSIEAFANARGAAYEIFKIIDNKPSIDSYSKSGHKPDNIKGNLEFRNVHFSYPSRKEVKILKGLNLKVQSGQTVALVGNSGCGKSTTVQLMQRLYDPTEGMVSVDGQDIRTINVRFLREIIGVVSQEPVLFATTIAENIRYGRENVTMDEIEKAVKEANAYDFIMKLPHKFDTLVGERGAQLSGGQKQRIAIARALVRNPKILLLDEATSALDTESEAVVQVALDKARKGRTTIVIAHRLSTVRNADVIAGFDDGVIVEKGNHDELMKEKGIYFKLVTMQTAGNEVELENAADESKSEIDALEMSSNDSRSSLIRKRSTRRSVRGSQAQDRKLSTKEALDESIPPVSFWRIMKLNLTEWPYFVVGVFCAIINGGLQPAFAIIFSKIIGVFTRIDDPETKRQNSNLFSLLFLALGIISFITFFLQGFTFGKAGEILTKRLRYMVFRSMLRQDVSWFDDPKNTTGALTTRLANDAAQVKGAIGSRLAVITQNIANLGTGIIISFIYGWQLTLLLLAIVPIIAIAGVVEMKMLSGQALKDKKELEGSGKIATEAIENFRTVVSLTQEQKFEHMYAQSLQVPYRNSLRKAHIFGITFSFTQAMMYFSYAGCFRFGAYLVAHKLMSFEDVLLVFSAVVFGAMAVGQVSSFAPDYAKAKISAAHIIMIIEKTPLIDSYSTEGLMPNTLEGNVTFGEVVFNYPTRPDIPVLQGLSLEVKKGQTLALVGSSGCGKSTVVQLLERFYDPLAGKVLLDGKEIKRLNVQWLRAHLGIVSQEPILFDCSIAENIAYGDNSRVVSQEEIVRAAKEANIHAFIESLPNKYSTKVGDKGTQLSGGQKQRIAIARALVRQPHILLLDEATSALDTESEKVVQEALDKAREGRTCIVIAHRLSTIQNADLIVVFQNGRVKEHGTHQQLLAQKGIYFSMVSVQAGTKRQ
Chain of hERG (Q12809 whole entry): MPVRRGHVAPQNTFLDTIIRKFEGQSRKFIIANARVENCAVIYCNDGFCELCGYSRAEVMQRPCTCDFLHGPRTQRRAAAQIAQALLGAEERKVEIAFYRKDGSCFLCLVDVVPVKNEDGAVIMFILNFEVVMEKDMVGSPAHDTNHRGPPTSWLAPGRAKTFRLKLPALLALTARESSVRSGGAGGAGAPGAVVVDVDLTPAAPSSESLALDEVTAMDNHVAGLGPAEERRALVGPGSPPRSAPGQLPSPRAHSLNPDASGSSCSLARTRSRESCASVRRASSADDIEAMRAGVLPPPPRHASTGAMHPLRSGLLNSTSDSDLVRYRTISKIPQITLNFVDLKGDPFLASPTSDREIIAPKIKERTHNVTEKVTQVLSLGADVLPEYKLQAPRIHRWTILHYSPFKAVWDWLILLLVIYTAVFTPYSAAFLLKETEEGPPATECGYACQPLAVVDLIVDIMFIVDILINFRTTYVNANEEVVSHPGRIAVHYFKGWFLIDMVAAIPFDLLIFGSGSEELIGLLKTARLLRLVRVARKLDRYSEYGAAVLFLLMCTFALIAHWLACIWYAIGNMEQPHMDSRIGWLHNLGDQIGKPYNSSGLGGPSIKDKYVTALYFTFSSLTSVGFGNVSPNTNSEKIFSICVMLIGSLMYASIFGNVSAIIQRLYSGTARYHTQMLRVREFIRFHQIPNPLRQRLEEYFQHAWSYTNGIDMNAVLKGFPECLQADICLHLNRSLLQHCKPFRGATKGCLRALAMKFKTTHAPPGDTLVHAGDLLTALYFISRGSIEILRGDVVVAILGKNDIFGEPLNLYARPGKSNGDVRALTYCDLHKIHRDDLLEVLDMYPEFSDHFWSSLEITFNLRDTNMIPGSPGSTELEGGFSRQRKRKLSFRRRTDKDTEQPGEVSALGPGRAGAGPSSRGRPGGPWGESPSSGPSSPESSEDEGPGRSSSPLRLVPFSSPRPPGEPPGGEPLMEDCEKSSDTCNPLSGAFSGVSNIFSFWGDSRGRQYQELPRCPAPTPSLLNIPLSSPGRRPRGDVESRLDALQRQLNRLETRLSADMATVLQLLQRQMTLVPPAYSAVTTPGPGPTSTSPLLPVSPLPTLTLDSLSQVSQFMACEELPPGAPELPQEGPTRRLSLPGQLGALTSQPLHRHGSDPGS

half-life [1]: 32.6 min | half-life [2]: 22.2 min | clearance [3]: 182 mL/min/kg | IC50 [4]: 102 nM | Tmax [5]: 15 min | F ([6]; po, 50 mg/kg, 24 h): 191% | Cmax [7]: 13500 ng/mL | AUC(0-t) at 24 h [8]: 9220 ng·h/mL | remaining at 1 h [9]: 85% | remaining at 1 h [10]: 47% | IC50 [11]: 23 nM
Molecule: Cc1c(C(N)=O)cnc2c1CCN2

IC50 [4]: > 10000 nM
Molecule: CNc1ncc(C(N)=O)c(C)c1C

IC50 [4]: > 10000 nM
Molecule: CNc1ncc(C(N)=O)c(C)n1

IC50 [4]: > 10000 nM
Molecule: C[C@@H]1Nc2ncc(C(N)=O)cc2[C@H]1C

IC50 [4]: > 10000 nM
Molecule: CNc1ccncc1C(N)=O

half-life [1]: 107 min | half-life [2]: 66.6 min | clearance [3]: 62.8 mL/min/kg | IC50 [4]: 282 nM | Cmax [7]: 38900 ng/mL | AUC(0-t) at 24 h [8]: 30700 ng·h/mL | remaining at 1 h [9]: 95% | remaining at 1 h [10]: 85% | IC50 [11]: 25 nM
Molecule: CNc1cc(C)c(C(N)=O)cn1

IC50 [4]: > 10000 nM
Molecule: CNc1cc(OC)c(C(N)=O)cn1

IC50 [4]: > 10000 nM
Molecule: CNc1cc(C(F)(F)F)c(C(N)=O)cn1

IC50 [4]: > 10000 nM
Molecule: CNc1ncc(C(N)=O)s1

IC50 [4]: > 10000 nM
Molecule: CCOc1cc(C)c(C(N)=O)cn1

IC50 [4]: > 10000 nM
Molecule: CNc1cc(C)c(C(N)=S)cn1

IC50 [4]: 639 nM
Molecule: CNc1cc(Cl)c(C(N)=O)cn1

IC50 [4]: > 10000 nM
Molecule: CNc1ncc(C(N)=O)cn1

IC50 [4]: 48 nM
Molecule: C[C@@H]1Cc2c(ncc(C(N)=O)c2Cl)N1

Stability ([9]; microsomes, 1 h): Unstable | Stability [10]: Unstable | IC50 [11]: 114 nM
Molecule: C[C@H]1Nc2ncc(C(N)=O)cc2[C@@H]1C

clearance [3]: 90 mL/min/kg | IC50 [4]: 43 nM | Tmax [5]: 20 min | bioavailability [6]: 129% | Cmax [7]: 11200 ng/mL | AUC(0-t) at 24 h [8]: 12100 ng·h/mL | remaining at 1 h [9]: 91% | Stability [10]: Unstable | IC50 [11]: 12 nM
Molecule: Cc1c(C(N)=O)cnc2c1C[C@@H](C)N2

IC50 [4]: > 10000 nM
Molecule: NC(=O)c1cnc2[nH]ccc2c1Cl

Further lines, the molecule ahead of its results:

Molecule: COc1ccc(C(N)=O)cn1
IC50 [4]: 1390 nM

Molecule: COc1ccccn1
pKa [12]: 3.28

Molecule: NC(=O)c1cnc2c(c1)OCCN2
IC50 [4]: > 10000 nM

Molecule: NC(=O)c1cnc2c(c1)CCN2
half-life [1]: 87.6 min | half-life [2]: 23.4 min | clearance [3]: 64.2 mL/min/kg | IC50 [4]: 175 nM | Tmax [5]: 15 min | Cmax [7]: 28700 ng/mL | AUC(0-t) at 24 h [8]: 29000 ng·h/mL | remaining at 1 h [9]: 100% | remaining at 1 h [10]: 89% | IC50 [11]: 142 nM

Molecule: NC(=O)c1cnc2c(c1Cl)CCN2
half-life [1]: 172 min | half-life [2]: 27 min | clearance [3]: 179 mL/min/kg | IC50 [4]: 92 nM | Tmax [5]: 15 min | bioavailability [6]: 90% | Cmax [7]: 5580 ng/mL | AUC(0-t) at 24 h [8]: 4330 ng·h/mL | remaining at 1 h [9]: 57% | remaining at 1 h [10]: 40% | IC50 [11]: 79 nM

Molecule: Cc1c(C(N)=O)c[n+]([O-])c2c1CCN2
IC50 [4]: 7050 nM

Molecule: NC(=O)c1cnc2c(c1)CCCN2
IC50 [4]: 740 nM

Molecule: C[C@@H]1Cc2cc(C(N)=O)cnc2N1
half-life [1]: 173 min | half-life [2]: 78.5 min | solubility [13]: ≥ 50 µg/mL | efflux ratio [14]: 0.79 | IC50 [4]: 42 nM | Tmax [5]: 15 min | Cmax [7]: 22500 ng/mL | AUClast ([8]; 24 h): 5115 ng·h/mL | IC50 [15]: > 100000 nM | IC50 [16]: > 30000 nM | remaining at 1 h [9]: 97% | Activity [17]: Non-Toxic | fraction unbound [18]: > 0.76 | fraction unbound [19]: > 0.62 | remaining at 1 h [10]: 93% | Vd [20]: 0.877 L/kg | IC50 [11]: 38 nM | Activity [21]: Non-Toxic

Molecule: NC(=O)c1ccc(N)nc1 [6-AMINONICOTINAMIDE]
IC50 [4]: 3620 nM

Molecule: NC(=O)c1cnc2[nH]ncc2c1
IC50 [4]: > 10000 nM

Molecule: C[C@H]1Cc2cc(C(N)=O)cnc2N1
IC50 [4]: > 10000 nM

Molecule: C[C@@H]1Cc2cc(C(N)=O)c[n+](C)c2N1
IC50 [4]: 6240 nM

B1: Nicotinamide N-methyltransferase (Homo sapiens), P40261 (protein)
chain: T1 sequence (P40261 whole entry)
Km [22]: 13.9 µM | Km [23]: 20.2 µM
